Values of other authors in US20160081975A1, “SOFT GEL COMPOSITIONS AND PRE-GEL CONCENTRATES” (VIRUN, INC., priority 2014, published 2016).

Settings: reported value

| Substance | HLB value |
| --- | --- |
| sucrose dipalmitate | 7.4 |
| sucrose distearate | 3 |
| sucrose monopalmitate | > 10 |
